# From PubChem BioAssay (NCI)
#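 Results reflect a 48-hour exposure of cells in 96-well plates to compound at five concentrations. GI50 is the concentration that inhibits growth by half. TGI denotes the concentration required for complete inhibition of growth.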
# Assays:
# Experiment in all cases: NCI-60 cell line screen, 48 h
# 786-0 renal = test system: 786-0 renal
# NCI/ADR-RES ovarian = test system: NCI/ADR-RES ovarian
# HT29 colon = test system: HT29 colon
# NCI-H460 lung = test system: NCI-H460 lung
# HL-60(TB) leukemia = test system: HL-60(TB) leukemia
# UO-31 renal = test system: UO-31 renal
# SF-295 CNS = test system: SF-295 CNS
# PC-3 prostate = test system: PC-3 prostate
# HS 578T breast = test system: HS 578T breast
# IGROV1 ovarian = test system: IGROV1 ovarian
Compound,GI50 (786-0 renal) [µM],TGI (786-0 renal) [µM],GI50 (NCI/ADR-RES ovarian) [µM],TGI (NCI/ADR-RES ovarian) [µM],GI50 (HT29 colon) [µM],TGI (HT29 colon) [µM],GI50 (NCI-H460 lung) [µM],TGI (NCI-H460 lung) [µM],GI50 (HL-60(TB) leukemia) [µM],TGI (HL-60(TB) leukemia) [µM],GI50 (UO-31 renal) [µM],TGI (UO-31 renal) [µM],GI50 (SF-295 CNS) [µM],TGI (SF-295 CNS) [µM],GI50 (PC-3 prostate) [µM],TGI (PC-3 prostate) [µM],GI50 (HS 578T breast) [µM],TGI (HS 578T breast) [µM],GI50 (IGROV1 ovarian) [µM],TGI (IGROV1 ovarian) [µM]
CCCCCCN1C(=O)CN=C1Nc1ccc2cc3ccc(NC4=NCC(=O)N4CCCCCC)cc3nc2c1,1.56,2.95,3.32,15,1.81,4.2,1.93,3.83,1.96,4.16,1.24,2.54,1.82,3.82,2.54,9,2.08,5.66,1.85,4.28
CCCCCCCCCCCCNC(=O)[C@H]1CSC(c2ccc(OC)c(F)c2)N1 (stereo not given in full),1.63,3.08,1.61,3.52,0.837,2.42,1.74,3.63,1.63,3.59,1.63,3.01,1.72,3.25,0.38,1.43,0.241,0.577,0.325,0.902
CCCCCCCCCCCCCCCCCC1=NC(C)(C)CN1CCO,1.73,3.2,3.16,11.5,1.37,2.66,1.97,3.65,1.81,4.11,1.57,3.05,1.79,3.68,1.63,4.43,1.66,3.93,1.56,3.11
C[C@H](NC(=O)CCC(F)(F)F)C(=O)N[C@@H]1C(=O)N(CCO)c2ncccc2-c2ccccc21,> 100,> 100,> 100,> 100,> 100,> 100,> 100,> 100,> 100,> 100,> 100,> 100,> 100,> 100,> 100,> 100,> 100,> 100,> 100,> 100
COc1cc(C(=O)N/N=C/c2cccc([N+](=O)[O-])c2)cc(OC)c1OC,5.8,> 100,3.55,59.2,2.89,8.1,3.23,> 100,0.762,10.2,5.2,> 100,2.75,29.2,2.92,> 100,2.02,8.6,4.63,> 100
C[C@]12CC[C@@H]3c4ccc(O)cc4CC[C@H]3[C@@H]1CC[C@@H]2NS(=O)(=O)c1ccc(-c2ccccc2)cc1,3.82,22.5,3.87,> 100,3.3,9.16,3.05,9.48,6.26,47.6,3.56,> 100,3.06,13.2,3.18,48.9,7.37,> 100,6.66,> 100
CCN(CC)CCOc1ccc(C2=C(c3ccccc3)CCc3cc(OC)ccc32)cc1,1.51,2.88,3.17,12.7,0.445,1.87,1.84,3.52,8.99,26,1.86,4.13,1.59,3.27,7.66,> 51.1,3.72,10.9,1.8,4.39
CN(C)c1ccc(Sc2ccc3nc(N)nc(N)c3c2)cc1,0.495,2.5,0.743,14.9,0.453,12,0.174,2.71,0.444,2.2,1.12,13.6,0.537,14.1,0.63,15.6,4.72,27.4,0.67,14.2
N#CC1(C#N)C2C=CC(C3CCC=C32)C1(C#N)C#N (stereo not given),,> 9.04,,> 10,,> 10,,> 10,,3.81,,> 5.88,,> 10,,> 10,,> 10,,> 10
Cn1cc(-c2nn3cc(-c4cccs4)nc3s2)c2cc(F)ccc21,7.62,52.3,0.991,19.1,0.477,14.8,1.73,17.1,1.34,15.5,1.72,> 100,2.24,9.39,3.19,> 100,2.34,13.4,1.93,> 100
Nc1ncnc2c1ncn2Cc1ccc(C23CC4CC(CC(C4)C2)C3)c(O)c1,25.6,> 100,> 100,> 100,15.1,> 100,11.8,> 100,5.06,> 100,90,> 100,18.3,> 100,8.36,96.3,10.7,69.7,27.2,> 100
COc1cc2c(cc1OC)[C@H]1C(=O)c3cc4c(cc3[C@H]1N(C)C2=O)OCO4,,> 45.2,,> 100,,> 100,,> 100,,> 68.6,,> 39.3,,> 69.9,,> 100,,> 100,,> 100
O=C(Nc1ccccc1)Nc1ccccc1CNc1nc(Nc2ccc(OCCN3CCCC3)cc2)ncc1Cl,1.11,2.78,8.79,28.2,1.66,8.39,1.07,2.22,1.06,2.5,2.57,10.3,7.24,14,6.06,14,2.38,15.7,7.02,15.4
